“And” between values parts separate entries of the source, which are not always exact repeats. Identical values can stand only once. Where a SMILES comes first, the peptide text is derived from it. The star is where a group is joined. Orn(α-tetramethylguanidino) = CN(C)C(=N[C@@H](CCCN)C(=O)*)N(C)C
Assays:
70S ribosomes = conditions: binding to 70S ribosomes; ref Krizsan et al., 2014; cited from earlier work
Excerpt: Antimicrobial peptides (AMPs) are considered as promising alternatives to common antibiotics that threateningly lose their therapeutic potentials against multidrug-resistant pathogens (Fox, [2013]; Wang et al., [2015]). In contrast to approved therapeutic peptide hormones, antimicrobial peptides have to be administered at much higher doses, which may amplify general drawbacks of peptide therapeutics. For example, the diabetes peptide drugs exenatide and pramlintide are given at daily doses of 20 μg (Byetta®; ~0.5 μg/kg) and 120 μg (Symlin®; ~1.5 μg/kg; Heine et al., [2005]; Hay et al., [2015]) ...

[1] = Organ distribution (blood, kidney, liver and brain homogenates, urine) after intraperitoneal administration; type: in vivo, NMRI mice; conditions: for Peptide level in brain homogenates (not detected, less than LOD) / Concentration in urine / Peptide level in brain (not detected, LOD converted to brain weight) / Recovered peptide amount in kidneys of treated animals / Recovery rate in blood relative to the injected peptide amount: mouse, in vivo, ip
Excerpt: A protocol to quantify Api88, Api137, and their major metabolites was established analog to that of oncocin derivatives, reported recently (Schmidt et al., [2016]). Briefly, an Alliance® 2695 HPLC system was coupled online to an ESI-QqLIT-MS (4,000 QTRAP®) equipped with a TurboV™ ion-spray source and operated in positive ion MRM mode using the Analyst® 1.6 software. Separation was achieved on a Jupiter C18-column (internal diameter 1 mm, length 150 mm, particle size 5 μm, pore size 300 Å) at 55 °C using a linear 5-min gradient from 2.7 to 20.7% aqueous acetonitrile containing ammonium formate (26 mmol/L, pH 3.0). Further details about instrumentation, MRM optimization, and MS settings are provided as Supplementary Material (Tables S1–S4, Method M1).
Female NMRI mice (8–9 weeks, 25–35 g) were injected intraperitoneally (10 mL/kg) with peptides dissolved in sterile PBS (Gibco® Life Technologies™, Darmstadt, Germany) at concentrations of 0.5 or 2 g/L corresponding to doses of 5 or 20 mg/kg body weight, respectively. After 10, 20, 30, 60, or 90 min animals (n = 7) were euthanized by carbon dioxide inhalation and terminal bleeding via cardiac puncture. Lithium-heparin plasma (n = 7) was prepared and stored at −80°C. Immediately after the final bleed, mice were perfused through the left ventricle with saline (0.9%, 50 mL, ~3 min) to remove blood from all organs controlled by discoloration of the liver. Organs were removed aseptically and directly frozen in liquid nitrogen. Spontaneously released urine was collected and frozen immediately at −80°C.
Method M1: M ultiple reaction monitoring (MRM) transitions for apidaecin peptides Peptides (1 µ g/ m L ) were dissolved inaqueous acetonitrile (25% or 60% v/ v) containing either formate buffer (26 mmol/ L, pH 2.6, 3.0, 3.3 or 3.9 ) or formic acid (0.1% v/v ) and infused (flow rate 5 µ L/min, PHD 2600 s yringe pump) into the ES I-Q q L IT -MS (4000 QTRAP®) to optimize buffer composition and MRM. Transitions were selected from the tandem mass spectra (MS/MS) and confirmed on an ESI-QqTOF-MS (QSTAR® pulsar I) providing higher mass resolutions and mass accuracies than the QTRAP ®. The settings for declustering potential (DP), collision potential (CE), and collision cell exit potential (CXP) were optimized by ramping the respective pot entials using the compound optimization tool of the Anal yst® software.
Method M2: Sample preparation
Frozen organs (5 per group) wer e homogenized in sterile PBS (500 µ L) containing Protease Inhibitor Mix M (1% v/v; SERVA Electrophoresis GmbH, Heidelberg, German y) using an Ultra-Turr ax ® T25 basic (IKA-Werke, Staufen, German y, rotational speed 21,500 min-1) for 1 min. Homogenates were sonicated on ice (35% amplitude, mode: 5 s on; 5 s off for 1 min; Vibra-cell™ 75041, Thermo Fisher Scientific) to disrupt cells. After centrifugation (15 min, 21,460 x g, 4°C) the supernatants were stored at - 80°C.
Aliquots of plasma (10 µL) or liver (10 µ L), kidney (50 µ L), and brain hom ogenates (100 µ L) were spiked with isotope -labeled Api88, Api137, Api1- 16, and Api1- 17 (2.5 µ g/ m L). The samples were diluted fourfold with aqueous phosphoric acid (3.4% v/v), loaded on an Oasis H LB 9 6 -well solid phase extraction (SPE) plate (5 mg sorbent, Waters ), washed with aqueous methanol (0.3 m L, 5% v/ v), eluted with methanol (0.3 m L), and dried in a vacuum centrifuge (30 °C; SpeedVac, Eppendorf ). The samples were dissolved prior analysis in aqueous acetonitrile (3% v/v) containing formic acid (0.1 % v/v).
Stock solutions (1 g/L) of the peptides and their corresponding isotope-labelled internal standards were prepared and diluted in water. Calibration and validation mixtures (10 µL) of unlabeled (0.025, 0.1, 0.5 or 2.5 µg/m L) and isotope-labeled peptides ( 2.5 µ g/ m L ) w ere mix ed with plasma or organ homogenates (10 to 100 µL) obtained from untreated animals fo r […]
Limits of detection (LOD) and quantification (LOQ) corresponded to the lowest peptide […]

E. coli ATCC 25922 = conditions: E. coli ATCC 25922; ref Czihal et al., 2012; Berthold et al., 2013; cited from earlier work
Excerpt: Antimicrobial peptides (AMPs) are considered as promising alternatives to common antibiotics that threateningly lose their therapeutic potentials against multidrug-resistant pathogens (Fox, [2013]; Wang et al., [2015]). In contrast to approved therapeutic peptide hormones, antimicrobial peptides have to be administered at much higher doses, which may amplify general drawbacks of peptide therapeutics. For example, the diabetes peptide drugs exenatide and pramlintide are given at daily doses of 20 μg (Byetta®; ~0.5 μg/kg) and 120 μg (Symlin®; ~1.5 μg/kg; Heine et al., [2005]; Hay et al., [2015]) ... || Apidaecin analogs Api88 and Api137 are similarly active against Gram-negative bacteria with a tendency of higher activity of Api88 against K. pneumoniae (Czihal et al., [2012]; Berthold et al., [2013]). However, Api88 carries a C-terminal amide that is responsible for its very fast proteolytic cleavage in serum, the supernatant obtained after complete coagulation and centrifugation of blood. The in vitro serum stability assay, which is an important in vitro criterion to select therapeutic peptides for systemic applications, yielded very short half-life times of 5 min for Api88, which indicate ...

Compound	Kd (70S ribosomes)	Peptide level in brain homogenates (not detected, less than LOD) ([1]; female, NMRI)	Concentration in urine ([1]; female, NMRI, 20 mg/kg)	Peptide level in brain (not detected, LOD converted to brain weight) [1]	Recovered peptide amount in kidneys of treated animals [1]	Recovery rate in blood relative to the injected peptide amount [1]	Concentration in urine ([1]; 5 mg/kg)	MIC (E. coli ATCC 25922)	Kidney concentration estimated from detected peptide amount ([1]; estimating the volume of both kidneys as 0.5 mL)
CC[C@H](C)[C@H](NC(=O)[C@H](Cc1ccc(O)cc1)NC(=O)[C@@H](NC(=O)[C@@H]1CCCN1C(=O)[C@H](CCCNC(=N)N)NC(=O)[C@H](CC(N)=O)NC(=O)[C@H](CC(N)=O)NC(=O)[C@H](CCCN)N=C(N(C)C)N(C)C)C(C)C)C(=O)N1CCC[C@H]1C(=O)N[C@@H](CCCNC(=N)N)C(=O)N1CCC[C@H]1C(=O)N[C@@H](CCCNC(=N)N)C(=O)N1CCC[C@H]1C(=O)N1CCC[C@H]1C(=O)N[C@@H](Cc1c[nH]cn1)C(=O)N1CCC[C@H]1C(=O)N[C@@H](CCCNC(=N)N)C(=O)N[C@@H](CC(C)C)C(N)=O [Api88] ({Orn(α-tetramethylguanidino)}-NNRPVYIPRPRPPHPRL-NH2)	1200 nM	< 43 ng/mL homogenate	~ 0.2 μg/mL	< 89 μg/g brain	1.8 µg/g	below 1%	below LOD	~ 4 μg/mL	–
CC[C@H](C)[C@H](NC(=O)[C@H](Cc1ccc(O)cc1)NC(=O)[C@@H](NC(=O)[C@@H]1CCCN1C(=O)[C@H](CCCNC(=N)N)NC(=O)[C@H](CC(N)=O)NC(=O)[C@H](CC(N)=O)NC(=O)[C@H](CCCN)N=C(N(C)C)N(C)C)C(C)C)C(=O)N1CCC[C@H]1C(=O)N[C@@H](CCCNC(=N)N)C(=O)N1CCC[C@H]1C(=O)N[C@@H](CCCNC(=N)N)C(=O)N1CCC[C@H]1C(=O)N1CCC[C@H]1C(=O)N[C@@H](Cc1c[nH]cn1)C(=O)N1CCC[C@H]1C(=O)N[C@@H](CCCNC(=N)N)C(=O)N[C@@H](CC(C)C)C(=O)O [Api137] ({Orn(α-tetramethylguanidino)}-NNRPVYIPRPRPPHPRL-OH)	560 nM	< 18 ng/mL homogenate	–	< 37 μg/g brain	2.4 µg/g	below 1%	–	4 μg/mL and ~ 4 μg/mL	4.8 µg/mL

Reference: article PMC5357639 (Frontiers in Chemistry, 2017)
